This is an account of results in patent publication US7001616B2, “Microspheres for use in the treatment of cancer” (University of Florida, priority 1998, dated 2006).

Where a name gives a salt, the structure may show the parent alone.

Type in all cases: physicochemical
A short description of data set [1]: Total percent loading of microspheres with test dye. The following applies: 9-aminoacridine, 100 mg per ml of methanol; spheres from suspension polymerization. As for the experimental part:
(§1) All four compositions produced in Example 1 were tested for release properties using 9-aminoacridine (Aldrich) (free from HCl) as a test dye. A 100–150 mg sample of each composition (from the 50–80 μm size group) was first washed twice with methanol, allowed to dry, and then immersed in a saturated solution of 9-aminoacridine in methanol (10 wt %) for 24 hours. The methanol was allowed to evaporate (usually for 24 hours) and the microspheres were washed by a repeated process of suspension and centrifuging (Adams Dynac centrifuge) in fresh neutral pH water (at least 10 cycles). The loaded spheres were collected in a paper filter cone and dried in an oven at 60° C. under vacuum.
For each composition, 5 mg of dye-loaded spheres were placed in glass vials (Fisher 20 ml scintillation vials) containing 15 ml of citric acid buffer (0.05 M, I=0.3) at pH 6.0, 6.5, and 6.8. The buffer solutions consisted of citric acid (anhydrous, Fisher Scientific), NaOH (Fisher Scientific), deionized water, and NaCl (Aldrich). A total of three samples were used from each composition at each pH value to account for error involved with the weighing of the microspheres. At least five samples (5 ml each) were taken from each vial over a 14 day period and the concentration of dye released was determined spectrophotometrically at 400 nm using a Perkin-Elmer Lambda 3B UV/VIS spectrophotometer. […]

The nature of data set [2]: Release of test dye from microspheres in buffer over 14 days. How it is done:
as §1
[…] […] A total of three samples were used from each composition at each pH value to account for error involved with the weighing of the microspheres. At least five samples (5 ml each) were taken from each vial over a 14 day period and the concentration of dye released was determined spectrophotometrically at 400 nm using a Perkin-Elmer Lambda 3B UV/VIS spectrophotometer. Each sample was replaced with fresh buffer solution. A 5 mg sample of each composition was also placed into 15 ml of pH 2.5 citric acid buffer (0.05 M) for 24 hours to determine the total percent loading (mg dye released/mg loaded spheres) for the microspheres.

A short description of data set [3]: In vitro doxorubicin release from microspheres in buffer. The following applies: pH 6.75; 50/49/1 microspheres. How it is done:
Doxorubicin Release. The doxorubicin release experiments were carried out in the same manner as the FUDR and dye release. 150 mg of 50–80 μm diameter microspheres were cleaned and immersed in 1 ml of methanol containing 5 mg of the drug for 24 hours and the methanol was allowed to evaporate slowly under the hood. The loaded microspheres were cleaned and dried and 10 mg samples were placed into 20 ml glass vials (Fisher Scientific). 15 ml of citric acid buffer was placed into each vial such that there were three samples each at pH values of 6.6, 6.75, and 6.9. Drug release at pH 7.4 was performed using 15 ml potassium phosphate buffer added to each of the remaining three vials. Drug release was measured spectrophotometrically at 479 nm.

The nature of data set [4]: In vitro FUDR release from microspheres in buffer. The note with it: 50/49/1 microspheres. As for the experimental part:
(§2) Initial FUDR Test. 150 mg of 50–80 μm diameter EMA/DEA/DVB (in a ratio of 50/49/1) microspheres were washed twice with methanol, dried and then immersed in 1 ml of methanol containing 5 mg FUDR. After 24 hours the methanol was allowed to evaporate and the loaded spheres were dispersed in 50 ml of distilled water and centrifuged repeatedly for 10 cycles. The spheres were collected and allowed to dry in a cone filter under the hood for 24 hours. 10 mg of the loaded spheres were placed in each of two separate vials containing either 15 ml of pH 6.8 citric acid buffer (0.05 M I=0.3) or pH 7.4 potassium phosphate monobasic-NaOH buffer (0.05M, Fisher Scientific). Each vial was agitated by hand daily and a total of 5 samples (5 ml each) were taken over a 14 day period and measured spectrophotometrically at 268 nm to determine the FUDR concentration in solution. Each sample was replaced using fresh buffer. The total percent loading was determined by the same process after placing a 10 mg sample of spheres into 15 ml of pH 4.0 citric acid buffer for 24 hours.
Follow-up FUDR Release. […] Sample volumes of 5 ml and 3 ml were taken from the pH 6.6 and 6.9 buffers, respectively.

Data set [5] can be described thus: Total percent loading of microspheres with FUDR. The note with it: 5 mg/ml FUDR in methanol; 50/49/1 microspheres, 50–80 μm. How it is done: as §2

`Nc1c2ccccc2nc2ccccc12` [test dye, 9-aminoacridine]: in data set [1], the “dye loading as restated in text” value is listed as “about 15%”. Besides, the entries for the “test dye release after 14 days” value in data set [2] (pH 6.8 citric acid buffer) and in data set [2] (pH 6.9 citric acid buffer) were 76% and 63%, respectively. The “test dye release after two weeks” value in data set [2] (pH 7.4 potassium phosphate monobasic-NaOH buffer) is on record as “over 10%”.

As for `COc1cccc2c1C(=O)c1c(O)c3c(c(O)c1C2=O)C[C@@](O)(C(=O)CO)C[C@@H]3O[C@H]1C[C@H](N)[C@H](O)[C@H](C)O1` [doxorubicin, hydroxydaunomycin hydrochloride], the “doxorubicin release over two week period” value in data set [3] was 75%.

In the case of `O=c1[nH]c(=O)n([C@H]2C[C@H](O)[C@@H](CO)O2)cc1F` [FUDR, fluorodeoxyuridine], the “FUDR release over 14 day period” value in data set [4] (pH 6.8) was 80%. In addition, in data set [4] (pH 6.9), the “FUDR 14 day release” value is 55%. Moreover, the FUDR release entry in data set [4] (pH 7.4) is given as “over 10%”. The same compound had an FUDR loading level in data set [5] of 1.4 weight percentage.
